One data set has as its system M. smegmatis RiboS-katG. As to the kind of experiment: Isoniazid antibiotic resistance assay, RiboS-katG strain.
The next data set deals with GFP. The format is cell-based, M. tuberculosis.
In the next data set the test system is β-galactosidase. As to the kind of experiment: β-Galactosidase activity assay in M. smegmatis. The class given is cell-based.
The test system of another data set is lacZ reporter gene. As to the kind of experiment: β-galactosidase assay in B. subtilis. The conditions noted are these: switches B and E compared.

Method for lacZ reporter gene: B. subtilis strain JH642 (2) was grown at 37° C. in LB with shaking (250 rpm). […] To assay for β-galactosidase activity, strains harboring the riboswitches were grown overnight in LB media with 20 μg/mL kanamycin. In the morning, cells were diluted 1:100 into fresh selective media containing 1 mM IPTG and either 0 or 2 mM theophylline. β-galactosidase assays were performed by the method of Miller (13) using permeabilization with toluene. […] Error bars are ±SD.

Take `NNC(=O)c1ccncc1` [isoniazid]: in the data set on M. smegmatis RiboS-katG (0-10 mM theophylline), the “isoniazid EC50 with increasing theophylline concentrations” value was “the EC50 decreases”. For the same molecule, in the data set with M. smegmatis RiboS-katG (no theophylline), the “isoniazid phenotype in the absence of theophylline” value was “isoniazid resistance phenotype”.
With `Cn1c(=O)c2[nH]cnc2n(C)c1=O` [theophylline], the “theophylline concentration of maximal GFP expression” value in the data set with GFP is on record as about 2 mM. Also, the “theophylline concentration of maximum β-galactosidase reporter expression” value with β-galactosidase was about 2 mM.

B1: Riboswitch B: synthetic theophylline-responsive riboswitch, mRNA sequence SEQ ID NO: 12 (nucleic acid)
chain: GGUACCGGUGAUACCAGCAUCGUCUUGAUGCCCUUGGCAGCACCCGCUGCGCAGGGGGUAUCAACAAGAUG
modifications: chemistry not fully specified
On to B1, for which the “activation ratios and levels of expression compared” value in the data set on lacZ reporter gene is on record as “comparable activation ratios, but substantially different levels of expression”.

For the origin of these results see patent US20120244601A1, “[…] INDUCIBLE GENE […]” (priority 2011, published 2012).
